Data reported in ChEMBL document CHEMBL4428102, “Discovery of an Orally Bioavailable Gonadotropin-Releasing Hormone Receptor Antagonist” (J Med Chem, 2016).

Target: T1, Gonadotropin-releasing hormone receptor (Homo sapiens, UniProt P30968)
T1 sequence (P30968 whole entry): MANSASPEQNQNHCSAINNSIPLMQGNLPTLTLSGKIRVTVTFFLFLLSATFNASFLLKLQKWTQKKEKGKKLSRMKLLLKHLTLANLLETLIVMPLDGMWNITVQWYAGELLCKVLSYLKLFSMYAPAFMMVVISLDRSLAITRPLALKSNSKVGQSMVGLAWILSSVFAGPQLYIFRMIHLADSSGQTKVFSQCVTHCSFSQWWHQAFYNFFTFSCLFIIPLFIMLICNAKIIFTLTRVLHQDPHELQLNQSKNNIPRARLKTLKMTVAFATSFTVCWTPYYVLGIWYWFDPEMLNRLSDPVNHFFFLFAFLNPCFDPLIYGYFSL
Assay: Displacement of [125I]D-Trp6-LHRH from human GnRH receptor expressed in CHO-K1 cell membranes incubated for 1 hr by competitive binding assay

Row | IC50 [nM] | SMILES
1 | > 100 | Cc1c(N2CCN(S(=O)(=O)c3ccccc3)CC2)c(=O)n(C[C@H](N)c2ccccc2)c(=O)n1Cc1c(F)cccc1F
2 | > 1000 | Cc1c(N2CCN(c3ccccn3)CC2)c(=O)n(C[C@H](N)c2ccccc2)c(=O)n1Cc1c(F)cccc1F
3 | 65.7 | Cc1c(N2CCN(Cc3ccc(C(F)(F)F)cc3)CC2)c(=O)n(C[C@H](N)c2ccccc2)c(=O)n1Cc1c(F)cccc1F
4 | > 100 | Cc1c(N2CCCC(c3ccccc3)C2)c(=O)n(C[C@H](N)c2ccccc2)c(=O)n1Cc1c(F)cccc1F (stereo not given in full)
5 | > 1000 | Cc1c(N2CCNCC2)c(=O)n(C[C@H](N)c2ccccc2)c(=O)n1Cc1c(F)cccc1F
6 | 10 | Cc1c(N2CCN(Cc3ccc(C#N)cc3)CC2)c(=O)n(C[C@H](N)c2ccccc2)c(=O)n1Cc1c(F)cccc1F
7 | > 100 | Cc1c(N2CCC(c3ccccc3)C2)c(=O)n(C[C@H](N)c2ccccc2)c(=O)n1Cc1c(F)cccc1F (stereo not given in full)
8 | > 100 | Cc1c(N2CCN(Cc3ccccc3OC(F)(F)F)CC2)c(=O)n(C[C@H](N)c2ccccc2)c(=O)n1Cc1c(F)cccc1F
9 | 3.1 | Cc1c(N2CCN(Cc3cccc(Cl)c3)CC2)c(=O)n(C[C@H](N)c2ccccc2)c(=O)n1Cc1c(F)cccc1F
10 | > 100 | Cc1c(N2CCN[C@@H](Cc3ccccc3)C2)c(=O)n(C[C@H](N)c2ccccc2)c(=O)n1Cc1c(F)cccc1F
11 | > 100 | Cc1c(N2CCN(Cc3ccccn3)CC2)c(=O)n(C[C@H](N)c2ccccc2)c(=O)n1Cc1c(F)cccc1F
12 | > 100 | Cc1cccc(CN2CCN(c3c(C)n(Cc4c(F)cccc4F)c(=O)n(C[C@H](N)c4ccccc4)c3=O)CC2)c1
13 | 14.8 | COc1cccc(CN2CCN(c3c(C)n(Cc4c(F)cccc4F)c(=O)n(C[C@H](N)c4ccccc4)c3=O)CC2)c1
14 | > 100 | Cc1c(N2CCCC(Cc3ccccc3)C2)c(=O)n(C[C@H](N)c2ccccc2)c(=O)n1Cc1c(F)cccc1F (stereo not given in full)
15 | 6.8 | Cc1c(N2CCN(Cc3ccccc3C#N)CC2)c(=O)n(C[C@H](N)c2ccccc2)c(=O)n1Cc1c(F)cccc1F
16 | > 100 | Cc1c(N2CCN(CC3COc4ccccc4O3)CC2)c(=O)n(C[C@H](N)c2ccccc2)c(=O)n1Cc1c(F)cccc1F (stereo not given in full)
17 | > 1000 | COc1ccccc1CN1CCN(c2c(C)n(Cc3c(F)cccc3F)c(=O)n(C[C@H](N)c3ccccc3)c2=O)CC1
18 | 5 | Cc1c(N2CCN(Cc3cccc(C#N)c3)CC2)c(=O)n(C[C@H](N)c2ccccc2)c(=O)n1Cc1c(F)cccc1F
19 | 65.5 | Cc1ccc(CN2CCN(c3c(C)n(Cc4c(F)cccc4F)c(=O)n(C[C@H](N)c4ccccc4)c3=O)CC2)cc1
20 | 75.6 | Cc1c(N2CCC(C)CC2)c(=O)n(C[C@H](N)c2ccccc2)c(=O)n1Cc1c(F)cccc1F
21 | 12 | Cc1c(N2CCN(Cc3ccccc3)CC2)c(=O)n(C[C@H](N)c2ccccc2)c(=O)n1Cc1c(F)cccc1F
22 | > 100 | COc1ccc(CN2CCN(c3c(C)n(Cc4c(F)cccc4F)c(=O)n(C[C@H](N)c4ccccc4)c3=O)CC2)cc1
23 | > 1000 | Cc1c(N2CCN(c3ccccc3)CC2)c(=O)n(C[C@H](N)c2ccccc2)c(=O)n1Cc1c(F)cccc1F
24 | 13.3 | Cc1c(N2CCN(Cc3ccccc3[N+](=O)[O-])CC2)c(=O)n(C[C@H](N)c2ccccc2)c(=O)n1Cc1c(F)cccc1F
25 | 80.3 | Cc1c(N2CCCC(C)C2)c(=O)n(C[C@H](N)c2ccccc2)c(=O)n1Cc1c(F)cccc1F (stereo not given in full)
26 | > 100 | Cc1c(N2CCN(C(=O)c3ccccc3)CC2)c(=O)n(C[C@H](N)c2ccccc2)c(=O)n1Cc1c(F)cccc1F
27 | > 100 | Cc1c(N2CCNC(CCO)C2)c(=O)n(C[C@H](N)c2ccccc2)c(=O)n1Cc1c(F)cccc1F (stereo not given in full)
28 | 1.5 | Cc1c(N2CCN(Cc3cccc(OC(F)(F)F)c3)CC2)c(=O)n(C[C@H](N)c2ccccc2)c(=O)n1Cc1c(F)cccc1F
29 | > 100 | Cc1c(N2CCc3ccccc3C2)c(=O)n(C[C@H](N)c2ccccc2)c(=O)n1Cc1c(F)cccc1F
30 | 1.1 | Cc1c(N2CCN(Cc3cccc(C(F)(F)F)c3F)CC2)c(=O)n(C[C@H](N)c2ccccc2)c(=O)n1Cc1c(F)cccc1F
